Results taken from patent publication US11596639B2, “Substituted indole Mcl-1 inhibitors” (Vanderbilt University, priority 2016, dated 2023).
Where two headings read alike, the source gives them in different places.

What was measured:
[1] = test system: H929 human cancer cell lines; test: Cellular viability / proliferation (Cell TiterGlo, 72 h); format: cell-based
Summary of the method: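 Compounds were added as 2-fold serial dilutions from 50 μM (final DMSO <1%) to H929 cells seeded 1,000 per well in 10% FBS medium one day earlier.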

Mcl-1 = Mcl-1 (Homo sapiens (Human), UniProt Q07820); test: Fluorescence polarization anisotropy (FPA) competition assay, FITC-Bak or FITC-Bim BH3 peptide; format: binding; settings: read-out: Ki for Inhibition of Mcl-1 by FPA assay
[2] = Homo sapiens, NCI-H929, 72 h, read-out: GI50 on cellular proliferation of H929 human cancer cell lines, H929 cells, 72 h, Cell TiterGlo, 10% FBS

Chain of Mcl-1 (Q07820 172-327): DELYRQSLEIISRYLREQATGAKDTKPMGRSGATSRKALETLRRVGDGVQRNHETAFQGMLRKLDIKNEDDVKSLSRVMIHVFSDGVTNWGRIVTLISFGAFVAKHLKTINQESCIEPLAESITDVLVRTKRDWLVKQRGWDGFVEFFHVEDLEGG

SMILES: Cc1cc(OCCCc2c3n(c4c(-c5c(C)nn(C)c5C)c(Cl)ccc24)[C@H](C)CN(c2cc(OCCN(C)C)cc4cc(C(=O)O)n(C)c24)C3=O)cc(C)c1Cl [Example 455, (R)-7-(7-Chloro-10-(3-(4-chloro-3,5-dimethylphenoxy)propyl)-4-methyl-1-oxo-6-(1,3,5-trimethyl-1H-pyrazol-4-yl)-3,4-dihydropyrazino[1,2-a]indol-2(1H)-yl)-5-(2-(dimethylamino)ethoxy)-1-methyl-1H-indole-2-carboxylic acid]
- GI50 [1, 2]: 220 nM
- Ki (Mcl-1): < 1 nM

SMILES: Cc1cc(OCCCc2c3n(c4c(-c5c(C)nn(C)c5C)c(Cl)ccc24)[C@H](C)CN(c2cccc4c2ccn4CC(=O)O)C3=O)cc(C)c1Cl [Example 134, (R)-2-(4-(7-Chloro-10-(3-(4-chloro-3,5-dimethylphenoxy)propyl)-4-methyl-1-oxo-6-(1,3,5-trimethyl-1H-pyrazol-4-yl)-3,4-dihydropyrazino[1,2-a]indol-2(1H)-yl)-1H-indol-1-yl)acetic acid]
- GI50 [1, 2]: 11000 nM
- Ki (Mcl-1): < 1 nM

SMILES: Cc1cc(OCCCc2c3n(c4c(-c5c(C)nn(C)c5C)c(Cl)ccc24)[C@H](C)CN(c2ccc(Cl)c4c(C(=O)O)cn(C)c24)C3=O)cc(C)c1Cl [Example 435, (R)-4-Chloro-7-(7-chloro-10-(3-(4-chloro-3,5-dimethylphenoxy)propyl)-4-methyl-1-oxo-6-(1,3,5-trimethyl-1H-pyrazol-4-yl)-3,4-dihydropyrazino[1,2-a]indol-2(1H)-yl)-1-methyl-1H-indole-3-carboxylic acid]
- GI50 [1, 2]: 570 nM
- Ki (Mcl-1): < 1 nM

SMILES: Cc1cc(OCCCc2c3n(c4c(-c5c(C)nn(C)c5C)c(Cl)ccc24)[C@H](C)CN(c2cc(Cl)cc4cc(C(=O)O)oc24)C3=O)cc(C)c1Cl [Example 232, (R)-5Chloro-7-(7-chloro-10-(3-(4-chloro-3,5-dimethylphenoxy)propyl)-4-methyl-1-oxo-6-(1,3,5-trimethyl-1H-pyrazol-4-yl)-3,4-dihydropyrazino[1,2-a]indol-2(1H)-yl)benzofuran-2-carboxylic acid]
- GI50 [1, 2]: 4000 nM
- Ki (Mcl-1): < 1 nM

SMILES: Cc1cc(OCCCc2c3n(c4c(-c5c(C)nn(CCN6CCCC6)c5C)c(Cl)ccc24)[C@H](C)CN(c2cn(C)c4ccc(C(N)=O)cc24)C3=O)cc(C)c1Cl [Example 392, (R)-3-(7-chloro-10-(3-(4-chloro-3,5-dimethylphenoxy)propyl)-6-(3,5-dimethyl-1-(2-(pyrrolidin-1-yl)ethyl)-1H-pyrazol-4-yl)-4-methyl-1-oxo-3,4-dihydropyrazino[1,2-a]indol-2(1H)-yl)-1-methyl-1H-indole-5-carboxamide]
- GI50 [1, 2]: 950 nM
- Ki (Mcl-1): 23 nM

SMILES: Cc1cc(OCCCc2c3n(c4c(-c5c(C)nn(C)c5C)c(Cl)ccc24)CCCN(c2cccc4c(C(=O)O)n(C)nc24)C3=O)cc(C)c1Cl [Example 16, 7-[8-Chloro-11-[3-(4-chloro-3,5-dimethyl-phenoxy)propyl]-1-oxo-7-(1,3,5-trimethylpyrazol-4-yl)-4,5-dihydro-3H-[1,4]diazepino[1,2-a]indol-2-yl]-2-methyl-indazole-3-carboxylic acid]
- GI50 [1, 2]: 2900 nM
- Ki (Mcl-1): < 1 nM

SMILES: COCCn1cc(N2C[C@@H](C)n3c(c(CCCOc4cc(C)c(Cl)c(C)c4)c4ccc(Cl)c(-c5c(C)nn(C)c5C)c43)C2=O)c2cc(C(=O)O)ccc21 [Example 268, (R)-3-(7-chloro-10-(3-(4-chloro-3,5-dimethylphenoxy)propyl)-4-methyl-1-oxo-6-(1,3,5-trimethyl-1H-pyrazol-4-yl)-3,4-dihydropyrazino[1,2-a]indol-2(1H)-yl)-1-(2-methoxyethyl)-1H-indole-5-carboxylic acid]
- GI50 [1, 2]: 410 nM
- Ki (Mcl-1): < 1 nM

SMILES: Cc1cc(OCCCc2c3n(c4c(-c5c(C)nc(CN6CCCC6)nc5C)c(Cl)ccc24)CCCN(c2cn(C)c4ccc(C(=O)O)cc24)C3=O)cc(C)c1Cl [Example 373]
- GI50 ([1]; H929 cells, 72 h, Cell TiterGlo, 10% FBS, read-out: GI50 on cellular proliferation of H929 human cancer cell lines): 1200 nM
- Ki (Mcl-1): 1.6 nM

SMILES: Cc1cc(OCCCc2c3n(c4c(-c5c(C)nn(C)c5C)c(Cl)ccc24)[C@H](C)CN(c2cc(C(=O)O)nc4c2ccn4C)C3=O)cc(C)c1Cl [Example 167, (R)-4-(7-chloro-10-(3-(4-chloro-3,5-dimethylphenoxy)propyl)-4-methyl-1-oxo-6-(1,3,5-trimethyl-1H-pyrazol-4-yl)-3,4-dihydropyrazino[1,2-a]indol-2(1H)-yl)-1-methyl-1H-pyrrolo[2,3-b]pyridine-6-carboxylic acid]
- GI50 [1, 2]: 4100 nM
- Ki (Mcl-1): < 1 nM

SMILES: Cc1cc(OCCCc2c3n(c4c(-c5c(C)nn(C)c5C)c(Cl)ccc24)[C@H](C)CN(c2cn(C)c4ccc(-c5ncn(CC6COC6)n5)cc24)C3=O)cc(C)c1Cl [Example 475, (R)-7-Chloro-10-(3-(4-chloro-3,5-dimethylphenoxy)propyl)-4-methyl-2-(1-methyl-5-(1-(oxetan-3-ylmethyl)-1H-1,2,4-triazol-3-yl)-1H-indol-3-yl)-6-(1,3,5-trimethyl-1H-pyrazol-4-yl)-3,4-dihydropyrazino[1,2-a]indol-1(2H)-one]
- GI50 [1, 2]: 250 nM
- Ki (Mcl-1): 7 nM

SMILES: Cc1cc(OCCCc2c3n(c4c(-c5c(C)nn(C)c5C)c(Cl)ccc24)[C@H](C)CN(c2cn(Cc4ccccn4)c4cc(C(=O)O)ccc24)C3=O)cc(C)c1Cl [Example 338, (R)-3-(7-Chloro-10-(3-(4-chloro-3,5-dimethylphenoxy)propyl)-4-methyl-1-oxo-6-(1,3,5-trimethyl-1H-pyrazol-4-yl)-3,4-dihydropyrazino[1,2-a]indol-2(1H)-yl)-1-(pyridin-2-ylmethyl)-1H-indole-6-carboxylic acid]
- GI50 [1, 2]: 2000 nM
- Ki (Mcl-1): < 1 nM

SMILES: Cc1cc(OCCCc2c3n(c4c(-c5c(C)nn(C)c5C)c(Cl)ccc24)[C@H](C)CN(c2cccc4cccc(C(=O)O)c24)C3=O)cc(C)c1Cl [Example 191, (R)-8-(7-Chloro-10-(3-(4-chloro-3,5-dimethylphenoxy)propyl)-4-methyl-1-oxo-6-(1,3,5-trimethyl-1H-pyrazol-4-yl)-3,4-dihydropyrazino[1,2-a]indol-2(1H)-yl)-1-naphthoic acid]
- GI50 [1, 2]: 3200 nM
- Ki (Mcl-1): < 1 nM

SMILES: Cc1cc(OCCCc2c3n(c4c(-c5c(C)nc(CN(C)CCN(C)C)nc5C)c(Cl)ccc24)[C@H](C)CN(c2cn(C)c4ccc(C(=O)O)cc24)C3=O)cc(C)c1Cl [Example 448, (R)-3-(7-Chloro-10-(3-(4-chloro-3,5-dimethylphenoxy)propyl)-6-(2-(((2-(dimethylamino)ethyl)(methyl)amino)methyl)-4,6-dimethylpyrimidin-5-yl)-4-methyl-1-oxo-3,4-dihydropyrazino[1,2-a]indol-2(1H)-yl)-1-methyl-1H-indole-5-carboxylic acid]
- GI50 [1, 2]: 360 nM
- Ki (Mcl-1): 2.2 nM

SMILES: Cc1cc(OCCCc2c3n(c4c(-c5c(C)nn(C)c5C)c(Cl)ccc24)[C@H](C)CN(c2cc(C(C)C)cc4cc(C(=O)O)n(Cc5ccccn5)c24)C3=O)cc(C)c1Cl [Example 359, (R)-7-(7-Chloro-10-(3-(4-chloro-3,5-dimethylphenoxy)propyl)-4-methyl-1-oxo-6-(1,3,5-trimethyl-1H-pyrazol-4-yl)-3,4-dihydropyrazino[1,2-a]indol-2(1H)-yl)-5-isopropyl-1-(pyridin-2-ylmethyl)-1H-indole-2-carboxylic acid]
- GI50 [1, 2]: 290 nM
- Ki (Mcl-1): 1.4 nM

SMILES: Cc1cc(OCCCc2c3n(c4c(-c5c(C)nn(C)c5C)c(Cl)ccc24)CCCN(c2nc(C(=O)O)n[nH]2)C3=O)cc(C)c1Cl [Example 37, 5-(8-Chloro-11-(3-(4-chloro-3,5-dimethylphenoxy)propyl)-1-oxo-7-(1,3,5-trimethyl-1H-pyrazol-4-yl)-4,5-dihydro-1H-[1,4]diazepino[1,2-a]indol-2(3H)-yl)-1H-1,2,4-triazole-3-carboxylic acid]
- GI50 [1, 2]: 1800 nM
- Ki (Mcl-1): 3 nM

SMILES: Cc1cc(OCCCc2c3n(c4c(-c5c(C)nn(C)c5C)c(Cl)ccc24)[C@H](C)CN(c2cn(C)c4cc(S(C)(=O)=O)ccc24)C3=O)cc(C)c1Cl [Example 222, (R)-7-chloro-10-(3-(4-chloro-3,5-dimethylphenoxy)propyl)-4-methyl-2-(1-methyl-6-(methylsulfonyl)-1H-indol-3-yl)-6-(1,3,5-trimethyl-1H-pyrazol-4-yl)-3,4-dihydropyrazino[1,2-a]indol-1(2H)-one]
- GI50 [1, 2]: 3000 nM
- Ki (Mcl-1): 6.9 nM

SMILES: COc1cc(N2C[C@@H](C)n3c(c(CCCOc4cc(C)c(Cl)c(C)c4)c4ccc(Cl)c(-c5c(C)nn(C)c5C)c43)C2=O)c2c(c1)c(C(=O)O)cn2C [Example 436, (R)-7-(7-Chloro-10-(3-(4-chloro-3,5-dimethylphenoxy)propyl)-4-methyl-1-oxo-6-(1,3,5-trimethyl-1H-pyrazol-4-yl)-3,4-dihydropyrazino[1,2-a]indol-2(1H)-yl)-5-methoxy-1-methyl-1H-indole-3-carboxylic acid]
- GI50 [1, 2]: 510 nM
- Ki (Mcl-1): 2.1 nM

SMILES: COc1cc(N2C[C@@H](C)n3c(c(CCCOc4cc(C)c(Cl)c(C)c4)c4ccc(Cl)c(-c5c(C)nn(C)c5C)c43)C2=O)c2c(c1)cc(C(=O)O)n2C [Example 342, (R)-7-(7-Chloro-10-(3-(4-chloro-3,5-dimethylphenoxy)propyl)-4-methyl-1-oxo-6-(1,3,5-trimethyl-1H-pyrazol-4-yl)-3,4-dihydropyrazino[1,2-a]indol-2(1H)-yl)-5-methoxy-1-methyl-1H-indole-2-carboxylic acid]
- GI50 [1, 2]: 230 nM
- Ki (Mcl-1): < 1 nM

SMILES: Cc1cc(OCCCc2c3n(c4c(-c5c(C)nn(C)c5C)c(Cl)ccc24)[C@H](C)CN(c2cc(C(=O)O)c4cnn(CCN5CCOCC5)c4c2)C3=O)cc(C)c1Cl [Example 56, (R)-6-(7-chloro-10-(3-(4-chloro-3,5-dimethylphenoxy)propyl)-4-methyl-1-oxo-6-(1,3,5-trimethyl-1H-pyrazol-4-yl)-3,4-dihydropyrazino[1,2-a]indol-2(1H)-yl)-1-(2-morpholinoethyl)-1H-indazole-4-carboxylic acid]
- GI50 [1, 2]: 810 nM
- Ki (Mcl-1): < 1 nM
